For one assay, the target named is T1, CDK2/CycE (Homo sapiens, UniProt P24941).
T1 construct: purchased ProQinase GmbH (Freiburg, Germany); host or cells: insect cells (Sf9)
The experiment in a line: CDK2/CycE kinase assay (TR-FRET, 2 mM ATP). It counts as biochemical. As to conditions: 2 mM ATP (high ATP); median; read-out: CDK2/CyclinE, 2 mM ATP (high ATP), IC50 (median). The procedure, abridged: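 GST-tagged human CDK2 and CycE from Sf9 cells, about 10 ng/ml, pre-incubated 15 min at 22 °C with compound in Tris/HCl pH 8.0 buffer. Reaction with 2 mM ATP and 0.75 µM biotinylated peptide for 25 min at 22 °C. Phospho-RB antibody TR-FRET (665/620 nm ratio) read after 1 h; data normalised to no-inhibitor and no-enzyme controls.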
For orientation: Time-resolved FRET reads energy transfer from a long-lived donor to a nearby acceptor.

Another assay has as its target T2, CDK9/CycT1 (Homo sapiens, UniProt P50750).
T2 construct: Recombinant full-length His-tagged human CDK9 and CycT1; purchased Life Technologies PV4131; host or cells: insect cells
The experiment in a line: CDK9/CycT1 high ATP kinase assay (TR-FRET, 2 mM ATP). It counts as biochemical. As to conditions: 2 mM ATP (high ATP); median; read-out: CDK9/CyclinT1, 2 mM ATP (high ATP), IC50 (median). The procedure, abridged: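 Full-length His-tagged human CDK9/CycT1 (insect cell, ~0.5 μg/mL) preincubated 15 min at 22 °C with compound in Tris pH 8.0, MgCl2, DTT buffer before reaction with biotinylated peptide substrate at high ATP (2 mM).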

Assay [1] addresses T3, CDK12 (nuclear staining in CAL-120 cells) (Homo sapiens, UniProt Q9NYV4).
T3 construct: endogenous in cells; host or cells: CAL-120 human breast cancer cells (DSMZ ACC 459)
Briefly: CDK12 nuclear protein level: immunofluorescence/high content analysis (CAL-120). The class given is cell-based. As to conditions: for DC50: CAL-120 cells, 24 h, immunofluorescence, 50% reduction of nuclear CDK12 staining intensity, median, read-out: CDK12 degradation IF, DC50- [mol/l] (median); for (IC50 CDK12 high ATP) to (Degradation DC50 CDK12) ratio: ratio of IC50 CDK12 high ATP kinase assay to DC50 CDK12 degradation (IF, CAL-120). The procedure, abridged:
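CAL-120 cells were treated with compound for 24 h at 37 °C, fixed with PFA and immunostained for CDK12. Nuclear CDK12 intensity was quantified by automated image analysis and normalized to DMSO and control. DC50 is the concentration giving 50% reduction of nuclear staining.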

Each structure is given as a SMILES string.

T2 sequence (P50750 whole entry): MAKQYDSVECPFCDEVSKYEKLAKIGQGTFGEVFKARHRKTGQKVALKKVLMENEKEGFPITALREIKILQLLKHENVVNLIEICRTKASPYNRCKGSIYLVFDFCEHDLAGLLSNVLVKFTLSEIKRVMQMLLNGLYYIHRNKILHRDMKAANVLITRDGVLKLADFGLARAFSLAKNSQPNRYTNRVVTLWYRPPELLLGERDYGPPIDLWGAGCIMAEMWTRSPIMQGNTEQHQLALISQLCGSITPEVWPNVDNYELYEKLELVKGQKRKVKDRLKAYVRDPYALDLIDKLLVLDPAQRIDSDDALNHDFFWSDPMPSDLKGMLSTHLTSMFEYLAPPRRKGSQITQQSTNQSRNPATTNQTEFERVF
T2 sequence (O60563 whole entry partner): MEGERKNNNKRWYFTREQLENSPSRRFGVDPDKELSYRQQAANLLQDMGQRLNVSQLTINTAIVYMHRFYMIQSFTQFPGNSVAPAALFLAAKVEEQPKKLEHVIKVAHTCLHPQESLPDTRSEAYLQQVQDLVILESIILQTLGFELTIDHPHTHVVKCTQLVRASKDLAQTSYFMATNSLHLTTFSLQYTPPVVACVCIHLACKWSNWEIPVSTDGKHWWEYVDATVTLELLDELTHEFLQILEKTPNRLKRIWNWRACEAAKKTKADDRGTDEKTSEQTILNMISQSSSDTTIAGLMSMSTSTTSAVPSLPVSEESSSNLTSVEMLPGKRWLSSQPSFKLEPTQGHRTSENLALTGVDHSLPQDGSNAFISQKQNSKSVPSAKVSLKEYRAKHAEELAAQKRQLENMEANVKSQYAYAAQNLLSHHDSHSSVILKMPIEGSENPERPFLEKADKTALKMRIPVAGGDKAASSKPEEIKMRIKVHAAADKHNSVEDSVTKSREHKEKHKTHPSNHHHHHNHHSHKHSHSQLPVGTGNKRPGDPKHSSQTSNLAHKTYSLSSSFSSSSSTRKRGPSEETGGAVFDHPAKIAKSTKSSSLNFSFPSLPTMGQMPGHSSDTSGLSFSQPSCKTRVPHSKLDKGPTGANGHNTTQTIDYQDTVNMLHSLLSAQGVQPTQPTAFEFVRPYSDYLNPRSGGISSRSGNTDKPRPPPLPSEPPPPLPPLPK
T3 sequence (Q9NYV4 whole entry): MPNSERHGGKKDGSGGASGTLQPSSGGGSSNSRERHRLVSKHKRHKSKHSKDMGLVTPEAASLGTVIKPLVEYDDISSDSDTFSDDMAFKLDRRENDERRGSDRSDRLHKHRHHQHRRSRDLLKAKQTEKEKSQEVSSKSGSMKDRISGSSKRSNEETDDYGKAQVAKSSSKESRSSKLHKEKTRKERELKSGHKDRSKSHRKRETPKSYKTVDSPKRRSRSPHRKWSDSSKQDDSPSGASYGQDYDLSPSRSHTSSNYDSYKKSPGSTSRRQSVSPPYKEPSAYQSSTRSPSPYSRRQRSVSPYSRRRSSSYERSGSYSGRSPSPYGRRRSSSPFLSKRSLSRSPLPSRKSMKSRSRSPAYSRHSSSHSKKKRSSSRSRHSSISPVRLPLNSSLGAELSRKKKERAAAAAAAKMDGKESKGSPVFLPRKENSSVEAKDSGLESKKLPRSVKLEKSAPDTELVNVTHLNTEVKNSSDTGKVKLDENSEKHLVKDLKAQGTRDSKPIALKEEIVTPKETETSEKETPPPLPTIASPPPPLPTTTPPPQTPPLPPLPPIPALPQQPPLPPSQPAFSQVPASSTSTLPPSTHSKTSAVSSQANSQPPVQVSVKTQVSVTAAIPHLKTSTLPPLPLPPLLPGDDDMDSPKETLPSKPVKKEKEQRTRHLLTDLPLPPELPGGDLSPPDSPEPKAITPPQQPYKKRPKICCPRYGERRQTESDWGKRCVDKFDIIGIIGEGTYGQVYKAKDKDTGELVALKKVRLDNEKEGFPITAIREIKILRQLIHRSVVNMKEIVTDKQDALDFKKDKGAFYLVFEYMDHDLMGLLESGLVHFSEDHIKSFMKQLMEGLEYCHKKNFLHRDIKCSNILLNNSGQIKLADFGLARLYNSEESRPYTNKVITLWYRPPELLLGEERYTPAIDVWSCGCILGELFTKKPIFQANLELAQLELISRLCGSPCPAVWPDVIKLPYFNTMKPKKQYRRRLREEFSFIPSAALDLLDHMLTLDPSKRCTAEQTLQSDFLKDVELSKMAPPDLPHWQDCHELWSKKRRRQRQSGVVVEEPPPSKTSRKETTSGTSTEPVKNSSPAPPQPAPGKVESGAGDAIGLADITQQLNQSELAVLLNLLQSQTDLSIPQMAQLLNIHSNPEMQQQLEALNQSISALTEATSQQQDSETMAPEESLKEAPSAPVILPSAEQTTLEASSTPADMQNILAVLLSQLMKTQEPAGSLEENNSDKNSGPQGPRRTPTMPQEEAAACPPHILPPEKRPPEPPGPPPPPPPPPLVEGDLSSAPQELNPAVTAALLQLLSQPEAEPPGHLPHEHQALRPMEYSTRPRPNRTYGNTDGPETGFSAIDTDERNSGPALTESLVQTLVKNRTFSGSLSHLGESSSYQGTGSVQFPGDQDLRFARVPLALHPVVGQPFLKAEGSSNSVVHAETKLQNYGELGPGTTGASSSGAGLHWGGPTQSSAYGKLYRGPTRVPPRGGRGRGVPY
T3 sequence (O75909 whole entry partner): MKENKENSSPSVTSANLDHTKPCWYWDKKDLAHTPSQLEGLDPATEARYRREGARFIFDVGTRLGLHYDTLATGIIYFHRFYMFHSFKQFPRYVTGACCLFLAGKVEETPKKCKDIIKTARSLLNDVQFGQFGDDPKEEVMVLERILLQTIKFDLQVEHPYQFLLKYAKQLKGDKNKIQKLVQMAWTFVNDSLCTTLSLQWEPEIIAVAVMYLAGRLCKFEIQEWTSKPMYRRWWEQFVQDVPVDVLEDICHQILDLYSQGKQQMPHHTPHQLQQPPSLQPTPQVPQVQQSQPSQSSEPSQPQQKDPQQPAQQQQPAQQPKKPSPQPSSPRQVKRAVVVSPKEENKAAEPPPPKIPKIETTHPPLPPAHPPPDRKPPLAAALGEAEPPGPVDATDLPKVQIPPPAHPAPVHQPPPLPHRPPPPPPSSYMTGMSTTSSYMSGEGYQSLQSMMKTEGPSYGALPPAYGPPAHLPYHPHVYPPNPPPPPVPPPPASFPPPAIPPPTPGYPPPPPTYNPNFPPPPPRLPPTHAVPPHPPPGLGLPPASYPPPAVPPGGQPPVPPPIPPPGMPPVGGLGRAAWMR

Turning to `CN1CCN(c2nc(NCc3nc4ccccc4[nH]3)n3ncc(C4CC4(F)F)c3n2)CC1` (stereo not shown) [Example 428, N-(1H-benzimidazol-2-ylmethyl)-8-(2,2-difluorocyclopropyl)-2-(4-methylpiperazin-1-yl)pyrazolo[1,5-a][1,3,5]triazin-4-amine], the IC50 at CDK2/CycE and on CDK9/CycT1 was over 20000 nM each time. The DC50 in assay [1] was determined as 7.03 nM. For the same compound, the “(IC50 CDK12 high ATP) to (Degradation DC50 CDK12) ratio” value in assay [1] is on record as over 2847.

For `CN1CCN(c2nc(NCc3nc4c(F)c(F)ccc4[nH]3)n3ncc(C4CC4(F)F)c3n2)CC1` (stereo not shown) [Example 429, N-[(4,5-difluoro-1H-benzimidazol-2-yl)methyl]-8-(2,2-difluorocyclopropyl)-2-(4-methylpiperazin-1-yl)pyrazolo[1,5-a][1,3,5]triazin-4-amine], the IC50 at CDK2/CycE is over 20000 nM. For the same compound, the IC50 at CDK9/CycT1 is over 20000 nM. Moreover, in assay [1], the DC50 was determined as 4.32 nM and the “(IC50 CDK12 high ATP) to (Degradation DC50 CDK12) ratio” value was over 4626.

On to `Clc1cc2nc(CNc3nc(N4CCOCC4)nc4c(-c5cncs5)cnn34)[nH]c2cc1Cl` [Example 443, N-[(5,6-dichloro-1H-benzimidazol-2-yl)methyl]-2-(morpholin-4-yl)-8-(1,3-thiazol-5-yl)pyrazolo[1,5-a][1,3,5]triazin-4-amine], for which the IC50 on CDK2/CycE and on CDK9/CycT1 was over 20000 nM in each case. Moreover, the DC50 in assay [1] was 4.23 nM. Moreover, the “(IC50 CDK12 high ATP) to (Degradation DC50 CDK12) ratio” value in assay [1] was found to be 941.

Turning to `CCc1cnn2c(NCc3nc4ccccc4[nH]3)nc(N3CCOCC3)nc12` [Example 431, N-[(1H-benzimidazol-2-yl)methyl]-8-ethyl-2-(morpholin-4-yl)pyrazolo[1,5-a][1,3,5]triazin-4-amine], the IC50 at CDK2/CycE came out at 1590 nM. In addition, at CDK9/CycT1, the IC50 is over 20000 nM. In assay [1], the DC50 stood at 3.39 nM and the “(IC50 CDK12 high ATP) to (Degradation DC50 CDK12) ratio” value was 829.

As for `CN(C)CCOc1nc(NCc2nc3ccccc3[nH]2)n2ncc(Br)c2n1` [Example 399, N-[(1H-benzimidazol-2-yl)methyl]-8-bromo-2-[2-(dimethylamino)ethoxy]pyrazolo[1,5-a][1,3,5]triazin-4-amine], the IC50 on CDK2/CycE and on CDK9/CycT1 was over 20000 nM in each case. Also, in assay [1], the DC50 came to 66 nM. Further, the “(IC50 CDK12 high ATP) to (Degradation DC50 CDK12) ratio” value in assay [1] is recorded as over 303.

Take `Brc1cnn2c(NCc3nc4ccccc4[nH]3)nc(N3CCCC3)nc12` [Example 47, N-[(1H-benzimidazol-2-yl)methyl]-8-bromo-2-(pyrrolidin-1-yl)pyrazolo[1,5-a][1,3,5]triazin-4-amine]: the values for the IC50 at CDK2/CycE and at CDK9/CycT1 were 4660 nM and over 20000 nM, respectively. Besides, the DC50 in assay [1] came to 5.75 nM. For the same compound, in assay [1], the “(IC50 CDK12 high ATP) to (Degradation DC50 CDK12) ratio” value amounted to 1252.

On to `CC(C)c1cnn2c(NCc3nnc(-c4ccccc4)[nH]3)nc(N3CCOCC3)nc12` [Example 33, 2-(morpholin-4-yl)-N-[(5-phenyl-4H-1,2,4-triazol-3-yl)methyl]-8-(propan-2-yl)pyrazolo[1,5-a][1,3,5]triazin-4-amine], for which the IC50 at CDK2/CycE stood at 8260 nM; on CDK9/CycT1, 14100 nM. Further, the DC50 in assay [1] is 67.8 nM. Further, the “(IC50 CDK12 high ATP) to (Degradation DC50 CDK12) ratio” value in assay [1] came out at 77.

Turning to `Fc1cccc2[nH]c(CNc3nc(N4CCN5CCC4CC5)nc4c(C(F)(F)F)cnn34)nc12` [Example 410, 2-(1,4-diazabicyclo[3.2.2]nonan-4-yl)-N-[(4-fluoro-1H-benzimidazol-2-yl)methyl]-8-(trifluoromethyl)pyrazolo[1,5-a][1,3,5]triazin-4-amine], the IC50 at CDK2/CycE was 10000 nM; on CDK9/CycT1, over 20000 nM. For the same compound, in assay [1], the DC50 is 1.19 nM. Further, the “(IC50 CDK12 high ATP) to (Degradation DC50 CDK12) ratio” value in assay [1] stood at 1336.

For `Cc1cnn2c(NCc3nc4c(F)c(F)ccc4[nH]3)nc(N3CC4CCC(C3)N4)nc12` [Example 400, 2-(3,8-diazabicyclo[3.2.1]octan-3-yl)-N-[(4,5-difluoro-1H-benzimidazol-2-yl)methyl]-8-methylpyrazolo[1,5-a][1,3,5]triazin-4-amine], the IC50 on CDK2/CycE was over 20000 nM. Moreover, on CDK9/CycT1, the IC50 is over 20000 nM. Further, in assay [1], the DC50 was found to be 6.15 nM and the “(IC50 CDK12 high ATP) to (Degradation DC50 CDK12) ratio” value is listed as over 2712.

As to `Brc1cnn2c(NCc3nc4ccccc4[nH]3)nc(N3CCCCC3)nc12` [Example 46, N-[(1H-benzimidazol-2-yl)methyl]-8-bromo-2-(piperidin-1-yl)pyrazolo[1,5-a][1,3,5]triazin-4-amine], at CDK2/CycE, the IC50 is 1850 nM. The IC50 at CDK9/CycT1 was over 20000 nM. Besides, in assay [1], the DC50 turned out to be 18 nM and the “(IC50 CDK12 high ATP) to (Degradation DC50 CDK12) ratio” value came out at 186.

For `Fc1ccc2[nH]c(CNc3nc(N4CCOCC4)nc4c(C(F)(F)F)cnn34)nc2c1F` [Example 426, N-[(4,5-difluoro-1H-benzimidazol-2-yl)methyl]-2-(morpholin-4-yl)-8-(trifluoromethyl)pyrazolo [1,5-a][1,3,5]triazin-4-amine], the IC50 on CDK2/CycE is 17300 nM. Besides, the IC50 on CDK9/CycT1 was 12700 nM. Further, in assay [1], the DC50 is 0.751 nM and the “(IC50 CDK12 high ATP) to (Degradation DC50 CDK12) ratio” value was 32.

Consider `Clc1ccc(-c2nnc(CNc3nc(N4CCOCC4)nc4c(Br)cnn34)[nH]2)cc1` [Example 45, 8-bromo-N-{[5-(4-chlorophenyl)-4H-1,2,4-triazol-3-yl]methyl}-2-(morpholin-4-yl)pyrazolo[1,5-a][1,3,5]triazin-4-amine], for which the figures for the IC50 at CDK2/CycE and at CDK9/CycT1 were 5370 nM and 3410 nM, respectively. In addition, in assay [1], the DC50 is 69.2 nM. Further, the “(IC50 CDK12 high ATP) to (Degradation DC50 CDK12) ratio” value in assay [1] amounted to 32.

In the case of `Cc1cnn2c(NCc3nc4c(F)c(F)ccc4[nH]3)nc(N(C)CC(C)(C)O)nc12` [Example 395, 1-[(4-{[(4,5-difluoro-1H-benzimidazol-2-yl)methyl]amino}-8-methylpyrazolo[1,5-a][1,3,5]triazin-2-yl)(methyl)amino]-2-methylpropan-2-ol], the IC50 at CDK2/CycE was over 20000 nM. For the same compound, the IC50 at CDK9/CycT1 was over 20000 nM. In addition, in assay [1], the DC50 is 8 nM and the “(IC50 CDK12 high ATP) to (Degradation DC50 CDK12) ratio” value is given as 800.

With `Cc1cnn2c(NCc3nc4c(F)c(F)ccc4[nH]3)nc(N3CCOCC3)nc12` [Example 392, N-[(4,5-difluoro-1H-benzimidazol-2-yl)methyl]-8-methyl-2-(morpholin-4-yl)pyrazolo[1,5-a][1,3,5]triazin-4-amine], the IC50 on CDK2/CycE was over 20000 nM. Moreover, the IC50 at CDK9/CycT1 is over 20000 nM. In assay [1], the DC50 turned out to be 6.41 nM and the “(IC50 CDK12 high ATP) to (Degradation DC50 CDK12) ratio” value is reported as 682.

With `CC(C)(O)COc1nc(NCc2nc3ccccc3[nH]2)n2ncc(Br)c2n1` [Example 398, 1-[(4-{[(1H-benzimidazol-2-yl)methyl]amino}-8-bromopyrazolo[1,5-a][1,3,5]triazin-2-yl)oxy]-2-methylpropan-2-ol], the IC50 on CDK2/CycE is 10400 nM; on CDK9/CycT1, over 20000 nM. In addition, the DC50 in assay [1] worked out at 66.2 nM. In assay [1], the “(IC50 CDK12 high ATP) to (Degradation DC50 CDK12) ratio” value turned out to be 221.

Consider `Fc1ccc2[nH]c(CNc3nc(N4CCN5CCC4CC5)nc4c(C(F)(F)F)cnn34)nc2c1F` [Example 407, 2-(1,4-diazabicyclo[3.2.2]nonan-4-yl)-N-[(4,5-difluoro-1H-benzimidazol-2-yl)methyl]-8-(trifluoromethyl)pyrazolo[1,5-a][1,3,5]triazin-4-amine], for which the IC50 on CDK2/CycE and at CDK9/CycT1 was over 20000 nM throughout. Besides, the DC50 in assay [1] came out at 2.31 nM. In addition, in assay [1], the “(IC50 CDK12 high ATP) to (Degradation DC50 CDK12) ratio” value is recorded as 306.

`N#Cc1cnn2c(NCc3nc4ccccc4[nH]3)nc(N3CCOCC3)nc12` [Example 43, 4-{[(1H-benzimidazol-2-yl)methyl]amino}-2-(morpholin-4-yl)pyrazolo[1,5-a][1,3,5]triazine-8-carbonitrile]: the IC50 on CDK2/CycE is over 20000 nM. In addition, on CDK9/CycT1, the IC50 was over 20000 nM. Further, in assay [1], the DC50 amounted to 9.58 nM and the “(IC50 CDK12 high ATP) to (Degradation DC50 CDK12) ratio” value is listed as over 1754.

For the compound `Brc1cnn2c(NCc3nc4ccccc4[nH]3)nc(OCC3CC3)nc12` [Example 408, N-[(1H-benzimidazol-2-yl)methyl]-8-bromo-2-(cyclopropylmethoxy)pyrazolo[1,5-a][1,3,5]triazin-4-amine], at CDK2/CycE, the IC50 was over 19700 nM. Moreover, the IC50 on CDK9/CycT1 is over 20000 nM. Moreover, in assay [1], the DC50 worked out at 56.8 nM and the “(IC50 CDK12 high ATP) to (Degradation DC50 CDK12) ratio” value was over 352.

For the compound `COc1cccc(-c2nnc(CNc3nc(N4CCOCC4)nc4c(Br)cnn34)[nH]2)c1` [Example 50, 8-bromo-N-{[5-(3-methoxyphenyl)-4H-1,2,4-triazol-3-yl]methyl}-2-(morpholin-4-yl)pyrazolo[1,5-a][1,3,5]triazin-4-amine], the IC50 at CDK2/CycE is 2330 nM. Besides, the IC50 on CDK9/CycT1 came out at 2010 nM. Besides, in assay [1], the DC50 was 12.5 nM and the “(IC50 CDK12 high ATP) to (Degradation DC50 CDK12) ratio” value is recorded as 224.

The values are drawn from patent US20230117034A1, “PYRAZOLOTRIAZINES” (Bayer Aktiengesellschaft, priority 2019, published 2023).
